The values below come from patent US20250376698A1, “COMPOSITIONS AND METHODS FOR PROMOTING LIVER REGENERATION BY GENE EDITING IN METABOLIC LIVER DISEASE” (priority 2022, published 2025).

Where two headings read alike, the source gives them in different places.

The test system of one data set is canine G6PC locus. The data set is described as follows: Nested integration PCR in transfected GSD Ia dog fibroblasts. The format is cell-based. The protocol: Next, a nested PCR reaction was performed to detect levels of DNA integration in genomic DNA in the transfected fibroblasts. Fibroblast DNA were extracted using the Wizard Genomic DNA Purification Kit (Promega, Madison, WI, USA). The canine G6Pc locus was amplified by Q5 Taq Polymerase (NEB, Ipswich, MA, USA) with the following reagents: 5 μL of Q5 buffer, 5 μL of high GC enhancer solution, 2 μL of 2.5 mM dNTP mix, 1.25 μL of 10 uM primer P1 (5′-[…]-3′, SEQ ID NO: 59)), 1.25 μL of 10 uM primer P4 (5′-[…]-3′, SEQ ID NO: 62)), 9.25 μL of water, 1 μL (100 ng) of genomic DNA, and 0.25 μL of Q5 Taq Polymerase. Cycling conditions were 35 cycles of denaturation at 95° C. for 30 s, annealing at 59° C. for 30 s, extension at 72° C. for 2 min, followed by incubation at 4° C. One microliter of first-round PCR products was used in a nested reaction with the same conditions except primers were P2 (5′-[…]-3′ (SEQ ID NO: 60)) and P3 (5′-[…]-3′ (SEQ ID NO: 61)) and cycling was 30 cycles. Control primers were P5 (5′-[…]-3′ (SEQ ID NO: 63)) and P6 (5′-[…]-3′ (SEQ ID NO: 64)).
Sequencing of the integration PCR product (total sequence: SEQ ID NO: 52) confirmed the donor sequence was inserted in the dog G6PC gene at the exon 1/intron 1 boundary. […]

The procedure of data set [1]: Vector genomes in liver were quantified with qPCR. Briefly, AAV vector genome copy number was measured by quantitative real-time PCR with liver genomic DNA and normalized to β-actin. Plasmid DNA corresponding to 0.01 to 100 copies of canine G6Pase gene (in 500 ng genomic DNA) was used in a standard curve. qPCR was performed on a Lightcycler 480 (Roche Diagnostics, Basel, Switzerland) using SYBR Green mix (Thermo-Fisher Scientific, Waltham, MA) and the following primers: cG6Pc Fwd (5′-[…]-3′, SEQ ID NO: 65), cG6Pc Rev (5′-[…]-3′, SEQ ID NO: 66), hG6PC Fwd (5′-[…]-3′, SEQ ID NO: 67), hG6PC Rev (5′-[…]-3′, SEQ ID NO: 68), saCas9 Fwd (5′-[…]-3′, SEQ ID NO: 69), saCas9 Rev (5′-[…]-3′, SEQ ID NO: 70), cB-actin Fwd (5′-[…]-3′, SEQ ID NO: 71), cB-actin Rev (5′-[…]-3′, SEQ ID NO: 72). Cycling conditions were 95° C. for 5 min, followed by 45 cycles of 95° C. for 10 s, 60° C. for 10 s, and 72° C. for 20 s followed by acquisition.

The test system of another data set is GSD Ia puppies. Put plainly: Clinical course (hypoglycemia, survival) of GSD Ia puppies treated as neonates. The format is in vivo, dog. The text has this:
In this example, puppies with GSD Ia were initially treated with AAV-CRISPR/Cas9 and AAV-cG6PC (Donor) to perform neonatal genome editing at 2 days of age, followed by gene replacement therapy with one or more alternative serotypes of AAV to control symptoms of GSD Ia at the indicated ages for the individual puppies (Puppy 1 shown in green, Puppy 2 in purple in FIG. 4A, see Table 3 below for details). The control group of dogs were those described in Example 2 that received 3 doses of gene replacement therapy during infancy.
As shown in FIG. 4A and described in Table 3 below, two puppies with GSD Ia were treated with genome editing as neonates at a 5:1 ratio of AAV7-cG6PC and AAV7-SaCas9. One puppy was dosed at 4×10^13 vp/kg AAV7-cG6PC and 8×10^12 vp/kg AAV7-SaCas9. The other was dosed with 5×10^13 vp/kg AAV7-cG6PC and […] AAV7-SaCas9. […] Specifically, one puppy (the first described above) received two doses of gene replacement therapy (e.g., AAV10 G6Pase at 3×10^12 vp/kg and AAV8 G6Pase at 1×10^13 vp/kg) at ages 2 and 3 months, respectively. The second puppy received only one gene replacement therapy at 2 months of age (e.g., AAV9 G6Pase at 3×10^13 vp/kg). Table 3 below details the treatment protocols used for both puppies.

A further data set has as its system G6Pase activity in liver. Put plainly: Liver G6Pase activity in GSD Ia dogs. In kind it is in vivo, dog. To be noted: 32 months of age, before CRISPR (BC), after gene replacement as neonates. The method, then: G6Pase activity and glycogen levels were analyzed at 4- and 16-months following genome editing at 34 months of age as described in (Koeberl, D. et al., (2006). Early, sustained efficacy of adeno-associated virus vector-mediated gene therapy in glycogen storage disease type Ia. Gene Therapy. 13, 1281-1289). Both assays reflected corrections of the biochemical abnormalities in comparison with untreated affected controls. Normal activity was measured in a group of three unaffected dogs (two carriers and one wildtype; both genotypes are accepted as normal controls in published studies of animals with GSD Ia). Briefly, liver biopsy tissues, obtained as described in Example 2, were flash-frozen and stored at −70° C. Glycogen content was measured by complete digestion of polysaccharide using amyloglucosidase (Sigma Chemical Co., St. Louis, MO). The structure of the polysaccharide was inferred by using phosphorylase free of the debranching enzyme to measure the yield of glucose-1-phosphate. Specific G6Pase activity was measured by using glucose-6-phosphate as substrate after subtraction of nonspecific phosphatase activity as estimated by β-glycerophosphate.

Where [2] appears, read: dogs treated as adults, months 4 and 16 after gene editing vectors.
Where [3] appears, read: puppies treated as neonates, Months 4 and 16.

As for “AAV-cG6PC: AAV donor vector: canine G6Pc cDNA flanked by canine G6PC 5' and 3' homology arms (SEQ ID NO: 43)”, the “transgene integration (integration PCR)” value in the data set on canine G6PC locus is listed as “no detectable integration events”. Besides, the “vector copy number in liver, compared with AAV-G6Pase” value in data set [1] (dogs treated as adults, 4 months following gene editing) was “Higher copy numbers”. In addition, the “vector genomes in liver (qPCR)” value in data set [1] (setting [2]) and in data set [1] (setting [3]) was “detected” in each case. For the same substance, the “hypoglycemia and survival in the first two months of life” value in the data set on GSD Ia puppies (GSD Ia puppies treated at 2 days of age) was “efficacious in preventing hypoglycemia and improving survival”.
As for “AAV-G6Pase: gene replacement AAV vector delivering human G6Pase cDNA under a human G6Pase minimal promoter, episomal expression (SEQ ID NO: 49; Luo et al. 2011) [reference compound]”, in data set [1] (dogs treated as adults, 4 months following gene editing (4M)), the “vector copy number in liver” value was under 0.1 vg/nucleus. Further, the “vector genomes in liver (qPCR)” value in data set [1] (setting [2]) and in data set [1] (setting [3]) was “detected” each time. Also, the “G6Pase activity in liver” value in the data set on G6Pase activity in liver is given as 29±8 % of normal. For the same substance, the “effect of gene replacement vector on recurrent hypoglycemia” value in the data set on GSD Ia puppies (puppies, given at 2 (and 3) months) is reported as “reversed their symptoms”.
